Test results taken from patent US9427444B2, “Pharmaceutical and cosmetic compositions for accelerated healing of wounds and other surface damages” (MITOTECH SA, priority 2007, dated 2016).

How the values were obtained:
[1] = system: human fibroblast monolayer; experiment: Human fibroblast monolayer damage, model of wound in vitro; assay type: cell-based
Description: Human fibroblast monolayer damage—is a model of wound in vitro, as fibroblasts are basement of connective tissue, which structure falls with any injury or damage. It is known that fibroblasts are one of the first to enter wounded area that considerably determines its healing. Fibroblast monolayer was damaged with sterile scalpel; as a result a 2000 micron wide distant break appeared. Ability of fibroblasts to heal the wound was estimated by length of cell migration zone, appeared during certain time period (1 day) inside the wound. Cell migration zone length depends directly on healing speed of artificially given wound. Results of several different SkQ1 concentrations test are shown on FIG. 4.

fibroblast culture = experiment: IF staining of cytoskeleton and fibronectin in fibroblast culture treated with SkQ1; assay type: cell-based, human
Description: It points to contraction activity and cell movement enhancement. […] This was done by IF staining of actin and myosin in fibroblast stress-fibrils, treated with SkQ1 and from control group.
Further on we analyzed a consistence of main extracellular matrix protein fibronectin in fibroblast culture, treated with SkQ1. […] Fibronectinic matrix forms as a result of both cell secretion and reorganization of matrix components present in culture in formation of serum. Fibronectin produced by fibroblasts has certain structural alterity that gives a possibility to construct selective antibodies.

[2] = system: human subdermal diploid fibroblasts; experiment: Differentiation of human subdermal fibroblasts into myofibroblasts (cell square, unstriped muscle actin, vinculin contacts); assay type: cell-based
Description: Myofibroblasts emerge as result of normal fibroblast differentiation and in comparison to them have bigger size, better adherence to the substrate (in vivo to extracellular matrix, in vitro to plastic), different cytoskeleton structure and contractive activity.
Main myofibroblast marker is unstriped muscle actin form, which mediates its contraction activity and almost never can be found in normal fibroblasts.
Better adherence to the substrate is also a characteristic feature of myofibroblasts, it promotes its movement into wound and brace of wound edges. In our experiments we estimated number of tight contacts between cell and substrate, containing special focal adhesion protein vinculin.
It is important to notice that short incubation with SkQ1 for 1-2 hours is enough for induction of this transformation, and further a population of myofibroblasts is supported in a media without SkQ1 for at least 4-6 weeks.

LAR epithelial cell line = experiment: Epithelial layer movement into the wound in vitro; assay type: cell-based
Description: Along with fibroblast movement and contraction, in wound healing a formation plays an important role of new epithelial layers in the wound—so called reepithalialization. Study on this process in vitro was carried out using LAR epithelial cell line. […] Ability of cell to form tight “islands” and single epithelial layer also weren't disturbed. Studies on expression of intracellular contact protein E-cadherin specific for epithelium confirmed epithelial structure stability in presence of SkQ1. […] This effect was studied in vitro using the same mode that was used in fibroblast studies. […] Unlike fibroblasts, epithelial cells moved into the wound in a single layer with all characteristic morphology and intracellular contacts.

## CC1=C(C)C(=O)C(CCCCCCCCCC[P+](c2ccccc2)(c2ccccc2)c2ccccc2)=CC1=O.[Br-] [SkQ1]
[1]; 1 day, 2000 micron wide break, FIG. 4
  length of cell migration zone inside the wound: short period incubation with SkQ1 caused effect, which continued for a long time even without SkQ1
[1]; 24 hours, FIG. 5
  number of cell rows entered to the wound: Injury healing acceleration
Fibroblast culture; IF staining of actin and myosin
  cell skeleton reorganization, stress-fibrils: active cell skeleton reorganization with stress-fibril enhancement
Fibroblast culture; monolayer areas and cell migration zone
  fibronectin level (IF staining): significant increase
Fibroblast culture; selective antibodies to fibroblast fibronectin
  intracellular expression of fibronectin: raises
[2]
  incubation time enough for induction of transformation into myofibroblasts: 1 to 2 h
[2]; SkQ1 20 nM, whole population
  average square value increase: increases more then two-three fold
[2]; SkQ1 treated versus control cells, FIG. 3
  number of vinculin-containing contacts per cell: increase of number of contacts per cell
[2]; SkQ1 treatment, FIG. 2
  average square of significant group of cells over control value (cell size distribution): 5-6 fold
[2]; after SkQ1 treatment
  unstriped muscle actin form (IF staining) in giant cells versus normal fibroblasts: heavy increase
[2]; after short incubation with SkQ1
  time myofibroblast population is supported in media without SkQ1: 4-6 weeks
LAR epithelial cell line
  actinic stress-fibrils in the cells: significantly raised
  cell movement into the wound: significantly accelerates cell movement into the wound
  morphological changes of epithelial cells: didn't cause significant morphological changes
  persistence of effect on epithelial cells after drug withdrawal: continued long after drug withdrawal
